Laboratory results reported in patent US10124076B2, “Imaging agents and methods of use thereof” (Huntington Medical Research Institutes, priority 2007, dated 2018).

Experiments:
[1] = T1 relaxation time of the hyperpolarized product, experimentally determined; format: physicochemical
Experimental: Sub-second carbon imaging is greatly simplified when the signal of interest exceeds the background signal from natural abundance resonances. This is possible when a ^13C hyperpolarized agent is injected. […] Long T1 (in excess of ten seconds) is obtained for ^13C in small molecules at sites where there is no directly attached proton. Deuteration can be used to achieve this (e.g., glucose) and it occurs naturally for carbonyls. Enhancements in excess of 1000 from hyperpolarization are obtained in the first 5 T1 (i.e., imaging and spectroscopy experiment should be accomplished within 100-225 seconds after hyperpolarizing the molecules). For the molecules proposed, the hyperpolarization decays with a time constant of 20-45 seconds (T1 relaxation time of the agent) and therefore long scan times are not feasible. In order to overcome this problem, the inventors have successfully reprogrammed several fast imaging pulse sequences with multinuclear capability (multinuclear pulse sequences, broadband amplifier, and multinuclear coils).
Specifically, the inventors have identified four water soluble biomolecules for hyperpolarization. The four molecules can be either commercially obtained or custom synthesized. In the cases of hyperpolarization by PASADENA, both the precursors and the hydrogenated products are water soluble and the hydrogenation experiments have achieved high yields. T1 times were experimentally determined.

[2] = DNP hyperpolarization in HyperSense polarizer, 13C NMR decay of magnetization; conditions: DNP hyperpolarized
Description: FIG. 9. ^13C NMR spectrum of DNP hyperpolarized CD3 ^13COO^−Na using OX63 radical (Sample 1). The SNR from the spectral sequence depicted in FIG. 9 are shown in the corresponding table.
FIG. 10. 13C NMR spectrum of hyperpolarized CD3 ^13COO^−Na^+ using Finland radical (Sample 2). The SNR from the spectral sequence depicted in FIG. 10 are shown in the corresponding table.
C. A sample of the proposed molecule, Sodium ^13Cl-acetate-d3, was hyperpolarized in water with two different electron donors (FIGS. 9 & 10) in a DNP HyperSense polarizer, and the time course of the decay of the magnetization studied. The SNR obtained from the first spectrum collected from polarized sample 2 is clearly less than that obtained from sample 1, showing that Sodium acetate has a preference for the more polar radical OX63. Both OX63 and Finland are triaryl based radicals and are commercially available form Oxford Instruments, UK. Clearly, the inventors' molecule can render over 10,000 fold signal enhancement by DNP with very long T1 time. The polarization will survive around 325 seconds (5 T1). This allows a large enough time (>5 minutes) window to effectively monitor the first six minutes of uptake and metabolism of hyperpolarized sodium acetate within the glial cells of the rat brain by ^13C NMR.

1-^13C glucose [perdeuterated 1-^13C of glucose]
experimentally determined T1 ([1]; 1-13C of perdeuterated glucose): 20 s
time window of observing the transfer of polarization (5 T1) ([1]; hyperpolarized glucose metabolized to TCA cycle metabolites): ~100 s

^13C1-^13C5 deuterated glutamine
T1 of the Product ([1]; Table 2, product of PASADENA or DNP hyperpolarization): 40 s

Sodium ^13Cl-acetate-d3
polarization survival time (5 T1) [2]: around 325 seconds
